Measurements taken from patent US20260027096A1, “PHD INHIBITORS” (Oxford University Innovation Limited, priority 2023, published 2026).

What was measured:
[1] = test system: BNIP3 protein in THP-1 cells
[2] = test system: MV411 AML cells in NBSGW recipient mice; experiment: MV411 xenotransplantation in NBSGW mice, combination with Venetoclax; assay type: in vivo, mouse; settings: 14 days treatment; IOX5 i.p. twice daily, Venetoclax o.g. once daily
Method: 14 days following transplantation, recipient mice were treated with IOX5 (68, example 46), Venetoclax or vehicle control. Dosing regimen consisted of 2× daily via i.p. injection (IOX5 (68, example 46) or vehicle) and/or 1× daily via o.g. (Venetoclax or vehicle). […] (E-G) Percentage of human CD45+CD33+CD14+ cells in the BM, spleen and liver, respectively (n=5). (H) Survival curve of mice treated with IOX5 (68, example 46), Venetoclax, IOX5 (68, example 46)+Venetoclax or vehicle control (n=6-7). (I-J) Proliferation and Annexin-V+DAPI+analyses, respectively, of THP-1 cells treated with Ven, IOX5, FIH inhibitor (FIHi; DM-NOFD), IOX5 (68, example 46)+FIHi, IOX5 (68, example 46)+Ven, FIHi+Ven, IOX5 (68, example 46)+FIHi+Ven or vehicle control (n=6). Statistical significance represented as in (A-B). Data represent mean±SEM; *p<0.05; ** p<0.01; *** p<0.001; **** p<0.0001.
100,000 THP-1 cells, 100,000 OCI-AM3 cells or 100,000 MV411 cells (for combination experiments) were tail vein injected into non-irradiated 10-to 12-week-old mixed gender NBSGW mice and began drug treatment 14 days after transplantation. […] Mice were culled 5 weeks after transplantation.
Mice in combination treatment experiments with Venetoclax (ABT-199) (MCE) were dosed once daily with 100 mg/kg via oral gavage (o.g.).
Further to findings in Example 170, the efficacy of IOX5 (68, example 46)+Venetoclax combination in vivo was investigated (FIG. 38D). MV411 AML cells were engrafted (with MLL-AF4 and FLT3-ITD mutation) and the recipient mice were treated with a vehicle, IOX5 (68, example 46), Venetoclax, and a combination of IOX5 (68, example 46)+Venetoclax.

O=C(NCC1CCC(C(F)(F)F)CC1)c1c[nH]c(-n2cccn2)cc1=O (stereo not drawn) [IOX5]
BNIP3 protein (western blot) [1]: strongly upregulated BNIP3 protein
leukaemic burden [2]: decreased leukaemic burden
survival of recipient mice [2]: extended survival of the recipient mice
